Consider 25 molecules from patent US20070009529A1, “Agents that dissolve arterial thrombi” (New York University, priority 2002, published 2007).

Entries after “also recorded” stand apart in the source; their conditions may differ. Where two headings read alike, the source gives them in different places. *: point of attachment. Biotin = O=C1N[C@H]2[C@H](CS[C@H]2CCCCC(=O)*)N1

In experiment [1] the test system is platelets. The experiment is described as follows: Effect of inhibitors on anti-GPIIIa49-66 Ab-induced platelet particle formation / oxidative fragmentation. The format is cell-based, human. The arrangement: effect on Ab-induced platelet particle formation: unit of the concentration uncertain. The protocol:
Induction of Platelet Particles. […] 1×10^7 gel-filtered platelets/ml were labelled with an anti-GPIIb-FITC monoclonal Ab (MoAb) (3B2) or an anti-GPIIIa-FITC MoAb (Ancell, Bayport, Minn.), 10 ug/ml for 30 min at 4° C., centrifuged at 1000 g×6 min at room temperature, and resuspended in Tyrodes buffer. […] (see below).
Debris and dead cells were excluded using scatter gates. Only cells with low orthogonal light scattering were included in the sorting gates. Gates were adjusted for control platelets by exclusion of other blood cells. Intact platelets were monitored in the right upper quadrant (RUQ) with the Y-axis measuring forward-scatter and the X-axis measuring fluorescence. A shift in the fluorescent particles from RUQ to LUQ reflected % platelet particle induction of 10,000 counted platelets/particles.
However, a recent report by Lerner and coworkers [19]provided evidence that Ab's in general are capable of inducing peroxide formation from an assortment of Ag's depending upon the tryptophan and cysteine composition and orientation. […] This hypothesis was tested with the use of diphenyleneiodonium (DPI), an inhibitor of NADH/NADPH oxidase, as well as other flavoprotein oxidases.

Experiment [2] deals with platelets. The experiment is described as follows: Platelet oxidation/fragmentation induced independently of anti-GPIIIa49-66 (DCHF-loaded platelets). The format is cell-based.
The test system of experiment [3] is p47phox(−/−), gp91phox(−/−)KO, 12-LO(−/−)KO mouse platelets. The experiment is described as follows: Platelet oxidation in NADPH oxidase and 12-LO KO mouse platelets. The following applies: gp91phox(−/−)KO and 12-LO(−/−)KO mouse platelets. The format is cell-based. The protocol:
It has also been discovered that platelet oxidation/fragmentation can be induced independently of anti-GPIIIa49-66 by […] A23187, a Ca^++ ionophore, or 0.4 μM PMA, a protein kinase C activator. […] Their reactivity is inhibited by the oxidation scavengers catalase (H2O2) and DPI (diphenylene iodonium, an inhibitor of NADPH-oxidase), and is absent in NADPH oxidase p47phox(−/−), gp91phox(−/−)KO as well as 12-LO(−/−)KO mouse platelets. Thus, anti-GPIIIa49-66 could be inducing the intracellular effects of ionophore and PMA.

The subject of experiment [4] is platelets. The experiment is described as follows: Ca++ flux (fura-2, AM) in activation of oxidative platelet death.
For experiment [5], the system named is platelets. The experiment is described as follows: Inhibition of HUVEC ADAMTS-18 induced platelet oxidation fragmentation. The format is cell-based. The note with it: single agent, n=7. The source says:
Recombinant ADAMTS-18 was then made with the expression vector pBudCE4.1 in 293T cells. This peptide induced platelet 12(S)—HETE and oxidation/fragmentation in an identical kinetic fashion as anti-GPIIIa49-66 antibody. Both expressed rADAMTS-18, and HUVEC conditioned media ADAMTS-18 could be activated by thrombin (0.5μ/mL and then neutralized with hirudin), with optimum effect at one hour (n=4). HUVEC ADAMTS-18 induced oxidation fragmentation could be inhibited about 50% by an scFV antibody raised against the ADAMTS-18 (18-mer) peptide as well as GPIIIa49-66 peptide, as well as RGDS (GPIIIa ligand binding site) (n=7).

The test system of the next experiment is mice. The note with it: earlier reports [10], [14]; cited from earlier work.
Where [6] appears, read: inhibitor at 2 (unit uncertain).
Setting [7] is: 4 Hrs, doubling concentrations from 50 uM/ml catalase and 5 uM/ml DPI, no UV/light irradiation.

With `O=CC[C@@H](O)[C@H](O)[C@H](O)CO` [2-deoxyglucose], in the experiment with platelets [1] (inhibitor at 3 (unit uncertain)), the “effect on Ab-induced platelet particle formation” value is reported as “unsuccessful”.

In the case of `CNc1ccc2oc(C[C@H]3O[C@@]4(CC[C@H]3C)O[C@H]([C@H](C)C(=O)c3ccc[nH]3)[C@H](C)C[C@H]4C)nc2c1C(=O)O` [A23187, calcimycin], in the experiment on platelets [2], the “induction of platelet oxidation/fragmentation” value was “induced” and the “oxidation of platelets loaded with the oxidative fluorochrome DCHF” value was “induce oxidation”. The “reactivity (platelet oxidation) in KO mouse platelets” value in experiment [3] is “absent”.

Turning to `O=C(O)CN(CC(=O)O)c1ccccc1OCCOc1ccccc1N(CC(=O)O)CC(=O)O` [BAPTA], the “inhibition of Ca++ flux” value in the experiment on platelets [4] (10 microM) is given as “completely inhibited”.

For the molecule `COc1cc2c(c(OC)c1OC)-c1ccc(OC)c(=O)cc1[C@@H](NC(C)=O)CC2` [Colchicine], the “effect on Ab-induced platelet particle formation” value in the experiment with platelets [1] (setting [6]) is listed as “unsuccessful”.

Consider `c1ccc2c(c1)[I+]c1ccccc1-2` [DPI, diphenyleneiodonium], for which, in the experiment on platelets [1] (setting [7]), the “effect on Ab-induced platelet particle formation” value is on record as “inhibition; also recorded: inhibited”. Further, the “effect of oxidation scavenger on reactivity of A23187 and PMA” value in the experiment on platelets [2] is “inhibited”.

Consider `O=C(O)CN(CCOCCOCCN(CC(=O)O)CC(=O)O)CC(=O)O` [EGTA, ethylenebis(oxyethylenenitrilo)tetraacetic acid], for which the “inhibition of Ca++ flux” value with platelets [4] (100 μM) is “completely inhibited”.

Consider `COC(=O)CC(NC(=O)OC(C)(C)C)C(=O)CF` (stereo not drawn) [FK-011], for which the “effect on Ab-induced platelet particle formation” value with platelets [1] (inhibitor at 100 uM) was “unsuccessful”.

As for `CC1CNCCN1S(=O)(=O)c1cccc2cnccc12` (stereo not drawn) [H-7], in the experiment with platelets [1] (inhibitor at 40 uM), the “effect on Ab-induced platelet particle formation” value is given as “unsuccessful”.

Regarding `[N-]=[N+]=[N-].[Na+]` [NaAz], the “effect on Ab-induced platelet particle formation” value in the experiment on platelets [1] is given as “unsuccessful”.

Regarding `CCCCC[C@H](O)/C=C/[C@H]1[C@H](O)CC(=O)[C@@H]1CCCCCCC(=O)O` [PGE1], in the experiment on platelets [1] (agent at 1 μM, n=6), the “oxidative fragmentation/death in the presence of the agent” value is listed as “not induced”.

As to `CCCCCCCCCCCCCC(=O)O[C@@H]1[C@@H](C)[C@@]2(O)[C@@H](C=C(CO)C[C@]3(O)C(=O)C(C)=C[C@@H]23)[C@@H]2C(C)(C)[C@]12OC(C)=O` [PMA, phorbol 12-myristate 13-acetate], the “oxidation of platelets loaded with the oxidative fluorochrome DCHF” value with platelets [2] is given as “induce oxidation”. In the experiment with platelets [2] (0.4 μM), the “induction of platelet oxidation/fragmentation” value is listed as “induced”. Also, the “reactivity (platelet oxidation) in KO mouse platelets” value in experiment [3] was “absent”.

Regarding `O=S(=O)(F)Cc1ccccc1` [PMSF], in the experiment with platelets [1] (setting [6]), the “effect on Ab-induced platelet particle formation” value is listed as “unsuccessful”.

`Oc1ncnc2[nH]ncc12` [allopurinol]: the “effect on Ab-induced platelet particle formation” value in the experiment on platelets [1] (inhibitor at 200 uM) is recorded as “failed to inhibit”.

With `C=C1[C@@H](C)[C@H]2[C@H](Cc3ccccc3)NC(=O)[C@]23[C@H](OC(C)=O)/C=C/[C@@](C)(O)C(=O)[C@@H](C)C/C=C/[C@H]3[C@@H]1O` [cytochalasin D], in the experiment with platelets [1] (inhibitor at 10 uM), the “effect on Ab-induced platelet particle formation” value is on record as “unsuccessful”.

As for `COc1ccc2c(c1)c(CC(=O)O)c(C)n2C(=O)c1ccc(Cl)cc1` [indomethacin], the “effect on Ab-induced platelet particle formation” value in the experiment with platelets [1] (inhibitor at 20 uM) is “failed to inhibit”.

As for `CC(=O)N[C@@H](CC(C)C)C(=O)N[C@@H](CC(C)C)C(=O)N[C@H](C=O)CCCNC(=N)N` [leupeptin], the “effect on Ab-induced platelet particle formation” value with platelets [1] (inhibitor at 5 ug/ml) was “unsuccessful”.

In the case of `CN[C@@H]1C[C@H]2O[C@@](C)([C@@H]1OC)n1c3ccccc3c3c4c(c5c6ccccc6n2c5c31)C(=O)NC4` [staurosporine], the “effect on Ab-induced platelet particle formation” value in the experiment on platelets [1] (inhibitor at 200 uM) was “unsuccessful”.

Consider `CC[C@]1(O)C[C@@H]2CN(CCc3c([nH]c4ccccc34)[C@@](C(=O)OC)(c3cc4c(cc3OC)N(C)[C@H]3[C@@](O)(C(=O)OC)[C@H](OC(C)=O)[C@]5(CC)C=CCN6CC[C@]43[C@@H]65)C2)C1` [vinblastine], for which the “effect on Ab-induced platelet particle formation” value with platelets [1] (inhibitor at 0.2 (unit uncertain)) is reported as “unsuccessful”.

With “CAPESIEFPVSEARVLED [GPIIIa49-66 peptide]”, in the experiment with platelets [5], the “inhibition of HUVEC ADAMTS-18 induced oxidation fragmentation” value was “about 50%”. Moreover, the “prevention or reversal of murine thrombocytopenia induced by anti-GPIIIa49-66 Ab” value with mice is “prevented or reversed”.

On to RGDS, for which the “inhibition of HUVEC ADAMTS-18 induced oxidation fragmentation” value with platelets [5] is listed as “about 50%”.

Take “bio-VQTRSVHCVQQGRPSSSC—OH (Biotin-VQTRSVHCVQQGRPSSSC-OH; cysteine pairing not given here) [18-mer peptide from the C-terminal TSP motif of ADAMTS-18, conjugated to biotin]”: the platelet oxidation/fragmentation result was “no effect” with platelets [2] (peptide alone) and “did induce oxidation/fragmentation” with platelets [2] (peptide clustered with an anti-biotin antibody, n=6).

Take calpastatin: the “effect on Ab-induced platelet particle formation” value with platelets [1] (inhibitor at 100 uM) is “unsuccessful”.

Regarding catalase, in the experiment on platelets [1] (setting [7]), the “effect on Ab-induced platelet particle formation” value was “could inhibit the reaction; also recorded: inhibited”. In the experiment on platelets [2], the “effect of oxidation scavenger on reactivity of A23187 and PMA” value is listed as “inhibited”.

Consider superoxide dismutase, for which the “effect on Ab-induced platelet particle formation” value with platelets [1] (setting [7]) was “inhibited”.

B1: HUVEC conditioned media ADAMTS-18: ADAMTS-18 in HUVEC conditioned media (protein, UniProt Q8TE60 285-1221, looked up)
A disintegrin and …: SAGKSQKGLNVETLVVADKKMVEKHGKGNVTTYILTVMNMVSGLFKDGTIGSDINVVVVSLILLEQEPGGLLINHHADQSLNSFCQWQSALIGKNGKRHDHAILLTGFDICSWKNEPCDTLGFAPISGMCSKYRSCTINEDTGLGLAFTIAHESGHNFGMIHDGEGNPCRKAEGNIMSPTLTGNNGVFSWSSCSRQYLKKFLSTPQAGCLVDEPKQAGQYKYPDKLPGQIYDADTQCKWQFGAKAKLCSLGFVKDICKSLWCHRVGHRCETKFMPAAEGTVCGLSMWCRQGQCVKFGELGPRPIHGQWSAWSKWSECSRTCGGGVKFQERHCNNPKPQYGGLFCPGSSRIYQLCNINPCNENSLDFRAQQCAEYNSKPFRGWFYQWKPYTKVEEEDRCKLYCKAENFEFFFAMSGKVKDGTPCSPNKNDVCIDGVCELVGCDHELGSKAVSDACGVCKGDNSTCKFYKGLYLNQHKANEYYPVVLIPAGARSIEIQELQVSSSYLAVRSLSQKYYLTGGWSIDWPGEFPFAGTTFEYQRSFNRPERLYAPGPTNETLVFEILMQGKNPGIAWKYALPKVMNGTPPATKRPAYTWSIVQSECSVSCGGGYINVKAICLRDQNTQVNSSFCSAKTKPVTEPKICNAFSCPAYWMPGEWSTCSKACAGGQQSRKIQCVQKKPFQKEEAVLHSLCPVSTPTQVQACNSHACPPQWSLGPWSQCSKTCGRGVRKRELLCKGSAAETLPESQCTSLPRPELQEGCVLGRCPKNSRLQWVASSWSECSATCGLGVRKREMKCSEKGFQGKLITFPERRCRNIKKPNLDLEETCNRRACPAHPVYNMVAGWYSLPWQQCTVTCGGGVQTRSVHCVQQGRPSSSCLLHQKPPVLRACNTNFCPAPEKREDPSCVDFFNWCHLVPQHGVCNHKFYGKQCCKSCTRKI
modifications: natural, HUVEC conditioned media
notes: ADAMTS-18 in HUVEC conditioned media
B1: the “time of optimum effect of activation by thrombin” value with platelets [2] (thrombin 0.5μ/mL, then neutralized with hirudin, n=4) is “one”.
